Values quoted from earlier work in patent publication US20090069233A1, “Agonist Peptides of Basic Fibroblast Growth Factor (bFGF) and the Method of Reduction of Wrinkles on Skin, Darkening of Hair and Acceleration of Wound Healing” (priority 2005, published 2009).

What was measured:
[1] = test system: melanocytes obtained from the uninvolved areas of untreated vitiligo subjects; conditions: in vitro cell cultures
wounds of diabetic mice = conditions: wound healing experiments
artificial wound space = conditions: poly-vinyl alcohol sponge implant, histological and biochemical analysis
[2] = test system: depigmented skin patches of Yucatan swine; conditions: bFGF by interdermal injection
[3] = test system: depigmented ear lobes of Guinea pigs; conditions: bFGF by interdermal injection

Substance	correction of abnormalities of melanocytes [1]	side effects (wounds of diabetic mice)	neo vascularisation, number of fibroblasts and deposition of collagen in the wound space (artificial wound space)	repigmentation of depigmented skin patches [2]	repigmentation of depigmented ear lobes [3]
bFGF: Basic fibroblast growth factor, a potent mitogen for melanocytes, keratinocytes and fibroblasts	corrects all the abnormalities of melanocytes	no side effects	increase neo vasculatisation the number of fibroblasts and the deposition of collagen in the wound space	found effect	found effect
epidermal growth factor: other growth factor used as specificity control in repigmentation animal models (NSDSECPLSHDGYCLHDGVCMYIEALDKYACNCVVGYIGERCQYRDLKWWELR; UniProt P01133 971-1023, looked up) [reference compound]	–	–	–	did not have any effect	did not have any effect
